Test results: the NIST ThermoML archive (doi:10.1007/s10765-011-0978-y)

Settings: Fluid (supercritical or subcritical phases), Falling or rolling sphere viscometry

FCC(F)(F)F [1,1,1,2-tetrafluoroethane]
viscosity [mPa·s]
Settings | 10000 kPa | 25000 kPa | 50000 kPa | 100000 kPa | 150000 kPa | 200000 kPa | 250000 kPa | 300000 kPa | 350000 kPa | 400000 kPa
293.15 K | 0.255 | 0.3008 | 0.3631 | 0.5045 | 0.6605 | 0.8252 | – | – | – | –
298.15 K | 0.2368 | 0.2795 | 0.3435 | 0.4988 | 0.6459 | 0.819 | 0.9773 | – | – | –
313.15 K | 0.207 | 0.2461 | 0.3127 | 0.4302 | 0.5758 | 0.7155 | 0.8952 | 1.069 | 1.25 | 1.446
323.15 K | 0.1805 | 0.2229 | 0.2852 | 0.3946 | 0.502 | 0.6252 | 0.7651 | 0.914 | – | –
348.15 K | 0.1405 | 0.1783 | 0.2343 | 0.3327 | 0.43 | 0.5368 | 0.6421 | 0.7647 | 0.8894 | 1.04
373.15 K | – | 0.1531 | 0.2038 | 0.2931 | 0.3764 | 0.4649 | 0.5564 | 0.6468 | 0.7557 | 0.8715
398.15 K | – | – | 0.1725 | 0.2544 | 0.3243 | – | – | – | – | –
438.15 K | – | – | 0.1458 | 0.2131 | 0.2789 | 0.3408 | 0.3977 | 0.4612 | – | –
